Drawing on patent publication US11780839B2, “Compounds for treating Huntington's disease” (PTC THERAPEUTICS, INC., priority 2018, dated 2023), this text covers IC50 for 31 compounds.

pIC50: −log10 of the molar value. Bounds are passed on as bounds.

In the assay the test system is Endogenous Huntingtin Protein. The assay can be described thus: Endogenous Huntingtin Protein Assay (ELISA-based Meso Scale Discovery electrochemiluminescence). It is filed as cell-based. The settings on record: MSD electrochemiluminescence, Table 1. How it is done:
Compounds of Formula (I) or Formula (II) were tested using the Meso Scale Discovery (MSD) Assay provided in International Application No. PCT/US2016/066042, filed on Dec. 11, 2016 and claiming priority to U.S. Provisional Application 62/265,652 filed on Dec. 10, 2015, the entire contents of which are incorporated herein by reference.
The Endogenous Huntingtin Protein assay used in Example 1 was developed using the ELISA-based MSD electrochemiluminescence assay platform.
Endogenous Huntingtin Protein Assay
Meso Scale Discovery (MSD) 96-well or 384-well plates were coated overnight at 4° C. with MW1 (expanded polyglutamine) or MAB2166 monoclonal antibody (for capture) at a concentration of 1 μg/mL in PBS (30 μL per well). Plates were then washed three times with 300 μL wash buffer (0.05% Tween-20 in PBS) and blocked (100 μL blocking buffer; 5% BSA in PBS) for 4-5 hours at room temperature with rotational shaking and then washed three times with wash buffer.
Samples (25 μL) were transferred to the antibody-coated MSD plate and incubated overnight at 4° C. After removal of the lysates, the plate was washed three times with wash buffer, and 25 μL of #5656S (Cell signaling; rabbit monoclonal) secondary antibody (diluted to 0.25 μg/mL in 0.05% Tween-20 in blocking buffer) was added to each well and incubated with shaking for 1 Hour at room temperature. Following incubation with the secondary antibody, the wells were rinsed with wash buffer after which 25 μL of goat anti-rabbit SULFO TAG secondary detection antibody (required aspect of the MSD system) (diluted to 0.25 μg/mL in 0.05% Tween-20 in blocking buffer) was added to each well and incubated with shaking for 1 hour at room temperature. After rinsing three times with wash buffer, 150 μL of read buffer T with surfactant (MSD) were added to each empty well, and the plate was imaged on a SI 6000 imager (MSD) according to manufacturers' instructions provided for 96- or 384-well plates.
Turning to `Oc1cc(-c2cn[nH]c2)ccc1-c1cnc(NC2C[C@H]3CC[C@@H](C2)N3)nn1` (stereo partly shown) [Cpd 78], the pIC50 (as a rule, the negative decadic logarithm of the IC50, by convention in mol/L) is ≥ 7.00.
As for `CN(c1ncc(-c2ccc(-n3cncn3)cc2O)nn1)C1CC(C)(C)NC(C)(C)C1` [Cpd 79, 2-{3-[methyl(2,2,6,6-tetramethylpiperidin-4-yl)amino]-1,2,4-triazin-6-yl}-5-(1H-1,2,4-triazol-1-yl)phenol], the pIC50 is ≥ 7.00.
The result for `CN(c1ncc(-c2ccc(-c3cn4ccnc4cn3)cc2O)nn1)C1CC(C)(C)NC(C)(C)C1` [Cpd 80, 5-(imidazo[1,2-a]pyrazin-6-yl)-2-{3-[methyl(2,2,6,6-tetramethylpiperidin-4-yl)amino]-1,2,4-triazin-6-yl}phenol] reads ≥ 7.00.
For `Cc1nnc(-c2ccc(-c3cnc(N(C)C4CC(C)(C)NC(C)(C)C4)nn3)c(O)c2)o1` [Cpd 81, 5-(5-methyl-1,3,4-oxadiazol-2-yl)-2-{3-[methyl(2,2,6,6-tetramethylpiperidin-4-yl)amino]-1,2,4-triazin-6-yl}phenol] the value was ≥ 7.00; for `CC1CC(Oc2ncc(-c3ccc(-c4cn[nH]c4)cc3O)nn2)CC(C)N1` (stereo not shown) [Cpd 82, 2-{3-[(2,6-dimethylpiperidin-4-yl)oxy]-1,2,4-triazin-6-yl}-5-(1H-pyrazol-4-yl)phenol], 6.30 to 7.00; for `CN(c1ncc(-c2ccc(-c3cnccn3)cc2O)nn1)C1CC(C)(C)NC(C)(C)C1` [Cpd 83, 2-{3-[methyl(2,2,6,6-tetramethylpiperidin-4-yl)amino]-1,2,4-triazin-6-yl}-5-(pyrazin-2-yl)phenol], ≥ 7.00.
For `CN(c1ncc(-c2ccc(-c3cccnn3)cc2O)nn1)C1CC(C)(C)NC(C)(C)C1` [Cpd 84, 2-{3-[methyl(2,2,6,6-tetramethylpiperidin-4-yl)amino]-1,2,4-triazin-6-yl}-5-(pyridazin-3-yl)phenol], the negative-log IC50 (pIC50) was ≥ 7.00.
For `CN(c1ncc(-c2ccc(-c3ncccn3)cc2O)nn1)C1CC(C)(C)NC(C)(C)C1` [Cpd 85, 2-{3-[methyl(2,2,6,6-tetramethylpiperidin-4-yl)amino]-1,2,4-triazin-6-yl}-5-(pyrimidin-2-yl)phenol] the value was ≥ 7.00; for `CN(c1ncc(-c2ccc(-c3cncnc3)cc2O)nn1)C1CC(C)(C)NC(C)(C)C1` [Cpd 86, 2-{3-[methyl(2,2,6,6-tetramethylpiperidin-4-yl)amino]-1,2,4-triazin-6-yl}-5-(pyrimidin-5-yl)phenol], 6.30 to 7.00; for `CN(c1ncc(-c2ccc(-c3cn[nH]c3)cc2O)nn1)C1C[C@H]2CCC[C@@H](C1)N2C` (stereo partly drawn) [Cpd 87, 2-(3-{methyl[(1R,3s,5S)-9-methyl-9-azabicyclo[3.3.1]nonan-3-yl]amino}-1,2,4-triazin-6-yl)-5-(1H-pyrazol-4-yl)phenol], ≥ 7.00.
For `COc1ncnc(-c2ccc(-c3cnc(N(C)C4CC(C)(C)NC(C)(C)C4)nn3)c(O)c2)n1` [Cpd 88, 5-(4-methoxy-1,3,5-triazin-2-yl)-2-{3-[methyl(2,2,6,6-tetramethylpiperidin-4-yl)amino]-1,2,4-triazin-6-yl}phenol] the value was ≥ 7.00; for `CN(c1ncc(-c2ccc(-n3ccnc3)cc2O)nn1)C1CC(C)(C)NC(C)(C)C1` [Cpd 89, 5-(1H-imidazol-1-yl)-2-{3-[methyl(2,2,6,6-tetramethylpiperidin-4-yl)amino]-1,2,4-triazin-6-yl}phenol], ≥ 7.00.
For `CN(c1ncc(-c2ccc(-n3cc(O)cn3)cc2O)nn1)C1CC(C)(C)NC(C)(C)C1` [Cpd 90, 1-(3-hydroxy-4-{3-[methyl(2,2,6,6-tetramethylpiperidin-4-yl)amino]-1,2,4-triazin-6-yl}phenyl)-1H-pyrazol-4-ol] the value was ≥ 7.00; for `CN(c1ncc(-c2ccc(-c3cnco3)cc2O)nn1)C1CC(C)(C)NC(C)(C)C1` [Cpd 91, 2-{3-[methyl(2,2,6,6-tetramethylpiperidin-4-yl)amino]-1,2,4-triazin-6-yl}-5-(1,3-oxazol-5-yl)phenol], ≥ 7.00; for `CN(c1ncc(-c2ccc(-c3ccc4nccn4n3)cc2O)nn1)C1CC(C)(C)NC(C)(C)C1` [Cpd 92, 5-(imidazo[1,2-b]pyridazin-6-yl)-2-{3-[methyl(2,2,6,6-tetramethylpiperidin-4-yl)amino]-1,2,4-triazin-6-yl}phenol], ≥ 7.00.
In the case of `CN(c1ncc(-c2ccc(-n3cc(F)cn3)cc2O)nn1)C1CC(C)(C)NC(C)(C)C1` [Cpd 93, 5-(4-fluoro-1H-pyrazol-1-yl)-2-{3-[methyl(2,2,6,6-tetramethylpiperidin-4-yl)amino]-1,2,4-triazin-6-yl}phenol], the pIC50 is ≥ 7.00.
For `Cc1cnn(-c2ccc(-c3cnc(N(C)C4CC(C)(C)NC(C)(C)C4)nn3)c(O)c2)c1` [Cpd 94, 5-(4-methyl-1H-pyrazol-1-yl)-2-{3-[methyl(2,2,6,6-tetramethylpiperidin-4-yl)amino]-1,2,4-triazin-6-yl}phenol] the value was 6.30 to 7.00.
Turning to `Oc1cc(-c2cn[nH]c2)ccc1-c1cnc(N2CCC3(CC2)CNC3)nn1` [Cpd 95, 2-[3-(2,7-diazaspiro[3.5]nonan-7-yl)-1,2,4-triazin-6-yl]-5-(1H-pyrazol-4-yl)phenol], the pIC50 was 6.30 to 7.00.
As for `Oc1cc(-c2cn[nH]c2)ccc1-c1cnc(N2CC3(CCNCC3)C2)nn1` [Cpd 96, 2-[3-(2,7-diazaspiro[3.5]nonan-2-yl)-1,2,4-triazin-6-yl]-5-(1H-pyrazol-4-yl)phenol], the negative-log IC50 (pIC50) was ≥ 7.00.
For `CN(c1ncc(-c2ccc(-c3ccc4[nH]ncc4c3)cc2O)nn1)C1CC(C)(C)NC(C)(C)C1` [Cpd 97, 5-(1H-indazol-5-yl)-2-{3-[methyl(2,2,6,6-tetramethylpiperidin-4-yl)amino]-1,2,4-triazin-6-yl}phenol] the value was ≥ 7.00; for `CN(c1ncc(-c2ccc(-c3cc(F)ccn3)cc2O)nn1)C1CC(C)(C)NC(C)(C)C1` [Cpd 98, 5-(4-fluoropyridin-2-yl)-2-{3-[methyl(2,2,6,6-tetramethylpiperidin-4-yl)amino]-1,2,4-triazin-6-yl}phenol], 6.30 to 7.00.
With `CN(c1ncc(-c2ccc(-n3ncc([N+](=O)[O-])n3)cc2O)nn1)C1CC(C)(C)NC(C)(C)C1` [Cpd 99, 2-{3-[methyl(2,2,6,6-tetramethylpiperidin-4-yl)amino]-1,2,4-triazin-6-yl}-5-(4-nitro-2H-1,2,3-triazol-2-yl)phenol], the negative logarithm of the IC50 (pIC50) was ≥ 7.00.
The result for `NC1C2CN(c3ncc(-c4ccc(-c5cn[nH]c5)cc4O)nn3)CC12` (stereo not shown) [Cpd 100, 2-[3-(6-amino-3-azabicyclo[3.1.0]hexan-3-yl)-1,2,4-triazin-6-yl]-5-(1H-pyrazol-4-yl)phenol] reads ≥ 7.00; that for `CN(c1ncc(-c2ccc(-c3cnn(C4CC4)c3)cc2O)nn1)C1CC(C)(C)NC(C)(C)C1` [Cpd 101, 5-(1-cyclopropyl-1H-pyrazol-4-yl)-2-{3-[methyl(2,2,6,6-tetramethylpiperidin-4-yl)amino]-1,2,4-triazin-6-yl}phenol], 6.30 to 7.00; that for `CN(c1ncc(-c2ccc(-c3ccncn3)cc2O)nn1)C1CC(C)(C)NC(C)(C)C1` [Cpd 102, 2-{3-[methyl(2,2,6,6-tetramethylpiperidin-4-yl)amino]-1,2,4-triazin-6-yl}-5-(pyrimidin-4-yl)phenol], ≥ 7.00.
On to `CN(c1ncc(-c2ccc(-c3ccc(O)cc3)cc2O)nn1)C1CC(C)(C)NC(C)(C)C1` [Cpd 103, 4-{3-[methyl(2,2,6,6-tetramethylpiperidin-4-yl)amino]-1,2,4-triazin-6-yl}[1,1'-biphenyl]-3,4’-diol], for which the pIC50 was ≥ 7.00.
As to `CN(c1ncc(-c2ccc(-c3ccc(=O)[nH]c3)cc2O)nn1)C1CC(C)(C)NC(C)(C)C1` [Cpd 104, 5-(3-hydroxy-4-{3-[methyl(2,2,6,6-tetramethylpiperidin-4-yl)amino]-1,2,4-triazin-6-yl}phenyl)pyridin-2(1H)-one], the pIC50 was ≥ 7.00.
As to `CN(c1ncc(-c2cc3cccnc3cc2O)nn1)C1CC(C)(C)NC(C)(C)C1` [Cpd 105, 6-{3-[methyl(2,2,6,6-tetramethylpiperidin-4-yl)amino]-1,2,4-triazin-6-yl}quinolin-7-ol], the negative-log IC50 (pIC50) was 6.30 to 7.00.
For `CN(c1ncc(-c2ccc(-c3nnco3)cc2O)nn1)C1CC(C)(C)NC(C)(C)C1` [Cpd 106, 2-{3-[methyl(2,2,6,6-tetramethylpiperidin-4-yl)amino]-1,2,4-triazin-6-yl}-5-(1,3,4-oxadiazol-2-yl)phenol] the value was ≥ 7.00; for `CC1(C)CC(Oc2ncc(-c3ccc(-c4cc[nH]n4)cc3O)nn2)CC(C)(C)N1` [Cpd 107, 5-(1H-pyrazol-3-yl)-2-{3-[(2,2,6,6-tetramethylpiperidin-4-yl)oxy]-1,2,4-triazin-6-yl}phenol], 5.52 to 6.00; for `Cn1ccc(-c2ccc(-c3cnc(OC4CC(C)(C)NC(C)(C)C4)nn3)c(O)c2)n1` [Cpd 108, 5-(1-methyl-1H-pyrazol-3-yl)-2-{3-[(2,2,6,6-tetramethylpiperidin-4-yl)oxy]-1,2,4-triazin-6-yl}phenol], < 6.30.
